Where “and” joins values, the source holds several entries; their conditions need not be identical. Identical values can stand only once. Calls of active or inactive are those of the source.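 Rule for the calls: active = compounds giving half or more protection of infected cells from virus-caused growth loss, again on retest; inactive = the rest.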
Tested on: CEM cells HIV-1 protection, formazan growth assay
Assay: NCI AIDS Antiviral Assay
Conditions: for IC50: measured here: growth of uninfected CEM cells
In short: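 Human CEM cells, uninfected and HIV-1-infected, received five drug concentrations, and growth was read by soluble formazan assay. Compounds giving at least 50% protection were retested; reproducible 100% protection defined confirmed active.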

| SMILES | EC50 [µM] | IC50 | outcome |
| --- | --- | --- | --- |
| CC(C)CCCC(C)C1CCC2C3CC([N+](=O)[O-])=C4CC(O)CCC4(C)C3CCC12C (stereo not given) | > 575 | 251 µM | – |
| N[C@H](C(=O)O)[C@H](Cl)CC(=O)O | > 245 | > 245 µM | – |
| COc1cc2oc(=O)cc(C)c2cc1O | > 871 | 138 µM | – |
| CC1=C/C(=C(/c2cccc(S(=O)(=O)O)c2)c2cc(C)c(O)c(C(=O)O)c2)C=C(C(=O)O)C1=O | – | – | inactive |
| [C-]#[O+].[C-]#[O+].[C-]#[O+].[C-]#[O+].[C-]#[O+].[Mo+2].[Mo+4].[c-]1[c-][c-][cH-][c-]1.[c-]1[c-][c-][cH-][c-]1.c1ccc([PH+](CC[PH+](c2ccccc2)c2ccccc2)c2ccccc2)cc1 | > 4.37 | 2.69 µM | – |
| O=C(O)CCNC(=O)c1ccccc1SC(=O)CCCC[n+]1ccccc1 | 21.9 | > 200 µM | – |
| CCCCCCCCCCCCCCCCCC(=O)NCC(COP(=O)(O)O)OCC (stereo not given) | > 21.4 | > 21.4 µM | – |
| CC(C(=O)c1ccccc1)C1(O)C(=O)Nc2ccccc21 (stereo not given) | – | – | inactive |
| O=[N+]([O-])C1(CO)COC2(OC1)c1ccccc1-c1ccccc12 | – | – | inactive |
| c1ccc2c(c1)cc1n2CC2CN=NC12 (stereo not given) | > 182 | > 182 µM | – |
| COc1ccc(C2Oc3cc(OC)c(O)cc3[C@@H]2C)cc1 (stereo not given in full) | > 66.1 | 6.46 µM | – |
| Cc1ccccc1Nc1cn(COCc2ccccc2)c(=O)[nH]c1=O | > 200 | 42.7 µM | – |
| CC(C)(C)N/N=C(\C(=O)NC1=C(Cl)C(=O)c2ccccc2C1=O)C1C=CCS1(=O)=O (stereo not given) | > 209 | 12.9 µM | – |
| C/C=C(/C1CC(=O)N2CCc3c([nH]c4ccccc34)C2C1)[Si](C)(C)C (stereo not given) | > 10.7 | > 10.7 µM | – |
| COC(=O)C(Cc1c(C2Nc3ccccc3C2CC(NC(C)=O)C(=O)OC)[nH]c2ccccc12)NC(C)=O (stereo not given) | > 200 | > 200 µM | – |
| Cc1cccc(C(C)(C)C)c1NC(=O)CCc1n[nH]c(=S)o1 | > 776 | 692 µM | – |
| C=C1CCC[C@@H]2[C@@](C)(Cc3cc(O)ccc3O)C(C)CC[C@]12C (stereo not given in full) | > 60.3 | 0.708 µM | – |
| CC(C)(C)C(=O)N1C(C(=O)O)Cc2ccccc2[C@@H]1Cc1ccccc1 (stereo not given in full) | > 74.1 | > 74.1 µM | – |
| O=C(O)CC1C(=O)OC2C3COC(=O)c4cc(O)c(O)c(O)c4-c4c(cc(O)c(O)c4O)C(=O)OC2C(OC(=O)c2cc(O)c(O)c4c2C1C(O)C(=O)O4)C(OC(=O)c1cc(O)c(O)c(O)c1)O3 (stereo not given) | 3.31 | 18.6 µM | – |
| CCOC(=O)C1=C(c2ccccc2)NC(c2ccccc2)=C(C(=O)OCC)c2c1c(=O)cc[nH]c2=O | > 53.7 | > 53.7 µM | – |
| O=c1[nH]c(=O)c2c([nH]1)[nH]c1ccc(Br)cc12 | > 200 | 34.7 µM | – |

| SMILES | EC50 [µM] | IC50 | outcome |
| --- | --- | --- | --- |
| COc1cc(OC)c(/C=C\c2ccnc3ccccc23)c(OC)c1 | > 200 | 8.51 µM | – |
| COc1cc(/C=C/C(=O)c2sc(-n3nc(-c4ccccc4)cc3-c3ccccc3)nc2C)ccc1O | > 14.5 | > 14.5 µM | – |
| CCOCCOCCCNCC(=O)N1CCN(C(=O)CNCCCOCCOCC)CC1 | – | – | inactive |
| Cc1cc(C)c(-c2c(O)c(O)c(-c3ccccc3)c3ccccc23)c(C)c1 | > 200 | 7.76 µM | – |
| O=C(NNC(=S)Nc1ccc(Cl)cc1)C12CC3CC(CC(C3)C1)C2 | > 200 | 6.61 µM | – |
| CCCCCCCCCCCCCCCCC(C(=O)O)C(=O)O | > 21.9 | > 21.9 µM | – |
| CCOC(=O)c1nc2ccccc2nc1NCc1ccc(Cl)cc1Cl | > 100 | 72.4 µM | – |
| CC(O)C(NC(=O)C1CSSCC(NC(=O)C(Cc2ccccc2)NC(=O)OCC2c3ccccc3-c3ccccc32)C(=O)NC(Cc2ccccc2)C(=O)NC(Cc2cn(C=O)c3ccccc23)C(=O)NC(CCCCNC(=O)OCC2c3ccccc3-c3ccccc32)C(=O)NC(C(C)O)C(=O)N1)C(N)=O (stereo not given) | > 50.1 | 6.46 µM | – |
| Cn1cc(S(=O)(=O)NC(=O)Nc2ccc(Cl)cc2)c2ccccc21 | > 200 | 27.5 µM | – |
| O=NNc1ccc(S(=O)(=O)c2ccccc2)cn1 | > 200 | > 200 µM | – |
| O=C1c2c(O)cc(O)cc2OC(c2ccc(O)cc2O)C1O (stereo not given) | > 200 | 93.3 µM | – |
| CSc1nc(NC2CCCC2)c2cc[nH]c2n1 | > 200 | 43.7 µM | – |
| CC1(C)CNC[C@](C)(OCCCO[C@@]2(C)CNCC(C)(C)NC2=O)C(=O)N1 | > 200 | > 200 µM | – |
| Brc1ccc2c(C3CN[C@@H](c4c[nH]c5cc(Br)ccc45)CN3)c[nH]c2c1 (stereo not given in full) | > 100 | 4.57 µM | – |
| COC(=O)CCN1CCN(CCO)CC1C (stereo not given) | > 200 | > 200 µM | – |
| CCCCOC(=O)c1cc(C(=CCC[C@H]2CC[C@@]3(C)[C@@H](CC[C@@H]4[C@@H]3CC[C@]3(C)[C@@H](C(C)CCCC(C)C)CC[C@@H]43)C2)c2cc(Cl)c(O)c(C(=O)OCCCC)c2)cc(Cl)c1O (stereo not given in full) | > 100 | > 100 µM | – |
| CC(C)(C)Cc1cssc1=S | > 200 | > 200 µM | – |
| COc1c2c(cc3nc4ccccc4nc13)CCC(C(C)(C)O)C2 (stereo not given) | – | – | inactive |
| COc1ccc(/C(C#N)=C/c2ccc(N(C)CCC#N)cc2)cc1 | > 200 | 3.16 µM | – |
| O=P1(O)c2ccccc2CSCc2ccccc21 | > 324 | > 324 µM | – |
| Cc1nn(C(=O)CC(=O)Nc2ccc(Cl)cc2)c(C)c1N=Nc1ccccc1F | – | – | inactive |

| SMILES | EC50 [µM] | IC50 | outcome |
| --- | --- | --- | --- |
| O=S(Nc1ccccc1)c1cccc(Cl)c1 (stereo not given) | – | – | inactive |
| O=c1c2cc3ccccc3n2c(=O)c2cc3ccccc3n12 | > 5.01 | > 5.01 µM | – |
| CN(CCCNc1ccc2ncn3c4ccccc4c(=O)c1c23)CCCN1C(=O)c2cccc3cc([N+](=O)[O-])cc(c23)C1=O | 0.01 | 0.0316 µM | – |
| O=C(CC(=O)c1cccc2ccccc12)C(=O)Nc1nccs1 | > 30.9 | > 30.9 µM | – |
| COC(=O)/C(C#N)=C1\CCc2ccccc21 | > 1170 | > 1170 µM | – |
| O=C(O)C[C@@H]1C(=O)OC2C3COC(=O)c4cc(O)c(O)c(O)c4-c4c(cc(O)c(O)c4O)C(=O)OC2C(OC(=O)c2cc(O)c(O)c4c2C1[C@H](O)C(=O)O4)C(OC(=O)c1cc(O)c(O)c(O)c1)O3 (stereo not given in full) | 2.63 | 12.9 µM | – |
| C#CC1(O)CC[C@H]2[C@@H]3CCC4=CCCC[C@@H]4[C@H]3CC[C@@]21C (stereo not given in full) | > 200 | 30.9 µM | – |
| c1ccc(N=C(N2CCOCC2)N(CCN2CCOCC2)c2ccccc2)cc1 | > 200 | 182 µM | – |
| CCCCn1c(-c2ccccc2)cs/c1=N\NC(=O)Cn1c(C)nc2ccccc21 | > 85.1 | 34.7 µM | – |
| COC(=O)c1ncn(C2CCCCC2)c1N | > 200 | > 200 µM | – |
| C1COC2(CNCC3(CNC2)OCCO3)O1 | > 200 | 174 µM | – |
| Cn1c(N)c(/C=N/NC(=O)CC#N)c(=O)n(C)c1=O | > 200 | > 200 µM | – |
| CCOC(=O)c1[nH]n(-c2ccccc2)c(=O)c1C=NC(=S)C(N)=S | > 200 | 33.9 µM | – |
| COc1cc(N=Nc2ccccc2C(=O)[O-])cc(/C=N/NC(N)=S)c1[O-].[O]=[Mo]=[O].[O]=[Mo]=[O] | – | – | inactive |
| C(=NCCN=Cc1cccc2ccccc12)c1cccc2ccccc12 | – | – | inactive |
| COc1ccc2c(c1)CCC1C[C@@H]3C[C@]21C=CC3=O (stereo not given in full) | > 182 | 49 µM and > 28.2 µM | – |
| CN(C)CCCNC(=O)c1cc(NC(=O)c2cc(NC(=O)c3cc(NC(=O)CCCn4ccc(CO)c4CO)cn3C)cn2C)cn1C | > 20 | 0.38 µM | – |
| O=S(c1ccccc1)C1CC2CC3(CCC21O)OCCO3 (stereo not given) | > 200 | > 200 µM | – |
| Cc1ccc(S(=O)(=O)c2c(N)n(CCN(C)C)c3nc4ccccc4nc23)cc1 | > 200 | > 200 µM | – |
| O=C1CC(c2ccccc2)Oc2cc(O)cc(O)c21 (stereo not given) | > 200 | 34.7 µM and > 200 µM and 55 µM | – |
| Cn1c2ccccc2c2nnc(N/N=C/c3ccccn3)nc21 | > 200 | 0.115 µM | – |

| SMILES | EC50 [µM] | IC50 | outcome |
| --- | --- | --- | --- |
| Cc1c(-c2coc(-c3ccccc3)n2)c(=O)n(-c2ccccc2)n1C | > 107 | > 107 µM | – |
| COc1cc(C(C)(C)C)c(OC(=O)/C=C/C(=O)O/C=C/[N+](=O)[O-])c(C(C)(C)C)c1 | > 200 | 31.6 µM | – |
| COc1cc(OC)nc(NC(=O)NS(=O)(=O)c2cccc3ncn(C)c(=O)c23)n1 | – | – | inactive |
| CCN(CC)Cc1cc(O)c(CN(CC)CC)cc1O | > 891 | 72.4 µM | – |
| CCc1cccc(CC)c1Nc1nc(-c2ccccc2-c2ccccc2)cs1 | > 200 | > 200 µM | – |
| CCOc1ccc(NC2OC(CO)C(O)C(O)C2NC(C)=O)cc1 (stereo not given) | > 200 | > 200 µM | – |
| Cc1cc(=O)n(-c2ccccc2C)c(C)n1 | > 1000 | > 1000 µM | – |
| CO[C@@H]1C2=CC=CC=C[C@H]2n2c(=O)n(-c3ccccc3)c(=O)n21 | > 162 | 81.3 µM | – |
| Nc1[nH]c(=O)ncc1F | > 200 | > 200 µM | – |
| N#C/C(C(=S)Nc1ccccc1)=C(/N)N1CCCC1 | > 200 | 105 µM | – |
| Cc1ccc(NC(=O)C(=O)C(C(=O)c2ccc3ccccc3c2)C2OC(=O)c3ccccc32)cc1C (stereo not given) | > 53.7 | 25.7 µM | – |
| O=C1OCC2(CO1)CC1C=CC2C1 (stereo not given) | > 200 | > 200 µM | – |
| O=C1N[C@@H]([C@H]2CC[C@H](Cl)CN2)C(=O)N[C@H]1[C@H]1CC[C@H](Cl)CN1 | > 5.89 | 0.0141 µM | – |
| O=CC[C@H]1CCc2ccccc2C12CCC(=O)CC2 | > 74.1 | > 74.1 µM | – |
| Cc1ccc(/C=C/C(=O)c2sc(-n3nc(-c4ccccc4)cc3-c3ccccc3)nc2C)cc1 | > 11.2 | > 11.2 µM | – |
| COC(=O)CC1CN(C(=O)OCc2ccccc2)C(C)(C)O1 (stereo not given) | > 200 | > 200 µM | – |
| C=CC[C@H](C[C@H](C[C@H](C[C@H](C[C@H](C[C@H](C[C@H](C[C@H](C[C@H](C[C@H](CCCCC)OC)OC)OC)OC)OC)OC)OC)OC)OC)OC | > 200 | 115 µM | – |
| COc1ccc(/C=C(\C#N)c2ccc(OC)cc2)cc1 | > 200 | 8.13 µM | – |
| CCCCCC(=O)OC1(C(C)=O)CCC2C3CCC4=CC(=O)CCC4C3CCC21C (stereo not given) | > 200 | 14.5 µM | – |
| O=[N+]([O-])CC(SCc1ccccc1)c1ccc2c(c1)OCO2 (stereo not given) | – | – | inactive |

From PubChem BioAssay AID179 (DTP/NCI, 2004)
